Experimental findings from ChEMBL document CHEMBL6134895, “Strategic Design and Optimization of Umifenovir Analogues: Balancing Antiviral Efficacy and hERG Toxicity against SARS-CoV-2” (J Med Chem, 2025) are described below.

The assay has as its system SARS-CoV-2. The assay is described as follows: Antiviral activity against SARS CoV-2 assessed as inhibition of viral entry into HEK293T-hACE2 cells pretreated compound with HIV-1-based SARS CoV-2 pseudovirus harboring reporter NanoLuc luciferase gene for 1 hr followed by exposure to HEK293T-hACE2 cells measured after 48 hrs by Nano-Glo luciferase assay. It is filed as functional, organism-based. To be noted: Severe acute respiratory syndrome coronavirus 2.
The IC50 is the concentration that inhibits the measured activity by half. As to `CCOC(=O)c1c(CSc2ccccc2)n(C)c2cc(Br)c(O)c(CN(C)C)c12`, the IC50 stood at 2300 nM.

Consider `Cc1ccc(Cn2c(CSc3c(C)cc(C)cc3C)c(C(=O)NC3CCN(C(C)C)CC3)c3cc(O)c(Br)cc32)cc1`, for which the IC50 was 170 nM.

Take `Cc1ccc(Cn2c(CSc3c(C)cc(C)cc3C)c(C(=O)N3CCC(N4CCOCC4)CC3)c3cc(O)c(Br)cc32)cc1`: the IC50 was 280 nM.
